Test results: ChEMBL document CHEMBL1129186, “Synthesis of new non-nucleoside inhibitors of HIV-1” (Bioorg Med Chem Lett, 1996)

Legend:
CEM-SS [1] = experiment: Compound was evaluated for antiviral activity against CEM SS cells infected with HIV-1(LAI strain).; format: functional, cell-based; conditions: Homo sapiens
CEM-SS [2] = experiment: Compound was evaluated for cytotoxicity against CEM SS cells infected with HIV-1(LAI strain).; format: functional; conditions: Homo sapiens

| IC50 (CEM-SS [1]) [µM] | Compound | CC50 (CEM-SS [2]) [µM] |
| --- | --- | --- |
| 6 | CCc1c(C)nc(O)c([N+](=O)[O-])c1Sc1cc(C)cc(C)c1 | > 10 |
| 1 | CC(=O)OCCCc1cc(Sc2cc(C)cc(C)c2)c([N+](=O)[O-])c(O)n1 | > 1 |

The next lines start with the compound.

| Compound | IC50 (CEM-SS [1]) [µM] | CC50 (CEM-SS [2]) [µM] |
| --- | --- | --- |
| CCc1c(C)nc(Cl)c([N+](=O)[O-])c1[S+]([O-])c1cc(C)cc(C)c1 (configuration not stated) | 3 | 8 |
| Cc1cc(C)cc(Sc2cc(CCCO)nc(O)c2[N+](=O)[O-])c1 | 8 | > 1 |
| CCc1c(C)nc(Cl)c([N+](=O)[O-])c1Sc1cc(C)cc(C)c1 | 8 | > 1 |
| Cc1cn([C@H]2C[C@H](N=[N+]=[N-])[C@@H](CO)O2)c(=O)[nH]c1=O [ZIDOVUDINE] | 3 | > 10 |
